Assay results as given in ChEMBL document CHEMBL5230132, “Cannabinoid Receptor Subtype 2 (CB2R) in a Multitarget Approach: Perspective of an Innovative Strategy in Cancer and Neurodegeneration” (J Med Chem, 2020).
pKi: −log10 of the molar value.

Columns and labels:
Cannabinoid receptor 1 [1] = molecular target: T1, Cannabinoid receptor 1 (Homo sapiens, UniProt P21554); assay: Displacement of [3H]CP55940 from human CB1 receptor stably expressed in CHO cells at 10 uM by radioligand binding assay relative to control; assay type: cell-based
T1 sequence (P21554 whole entry): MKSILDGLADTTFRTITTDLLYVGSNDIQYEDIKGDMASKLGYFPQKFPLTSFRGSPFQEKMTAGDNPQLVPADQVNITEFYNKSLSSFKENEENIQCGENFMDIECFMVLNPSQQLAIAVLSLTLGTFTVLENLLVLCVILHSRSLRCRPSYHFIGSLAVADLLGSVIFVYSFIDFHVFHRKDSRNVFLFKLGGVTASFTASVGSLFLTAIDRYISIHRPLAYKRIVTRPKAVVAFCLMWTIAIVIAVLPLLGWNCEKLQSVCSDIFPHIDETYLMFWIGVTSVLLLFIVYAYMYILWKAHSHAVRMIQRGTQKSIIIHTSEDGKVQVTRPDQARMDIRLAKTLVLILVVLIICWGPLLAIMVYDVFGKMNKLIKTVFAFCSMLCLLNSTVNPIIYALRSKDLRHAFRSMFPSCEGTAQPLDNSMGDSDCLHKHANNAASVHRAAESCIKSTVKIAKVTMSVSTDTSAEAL

Cannabinoid receptor 2 [2] = molecular target: T2, Cannabinoid receptor 2 (Homo sapiens, UniProt P34972); assay: Binding affinity to human CB2 receptor stably expressed in HEK cells assessed as inhibition constant by […]; assay type: cell-based
T2 sequence (P34972 whole entry): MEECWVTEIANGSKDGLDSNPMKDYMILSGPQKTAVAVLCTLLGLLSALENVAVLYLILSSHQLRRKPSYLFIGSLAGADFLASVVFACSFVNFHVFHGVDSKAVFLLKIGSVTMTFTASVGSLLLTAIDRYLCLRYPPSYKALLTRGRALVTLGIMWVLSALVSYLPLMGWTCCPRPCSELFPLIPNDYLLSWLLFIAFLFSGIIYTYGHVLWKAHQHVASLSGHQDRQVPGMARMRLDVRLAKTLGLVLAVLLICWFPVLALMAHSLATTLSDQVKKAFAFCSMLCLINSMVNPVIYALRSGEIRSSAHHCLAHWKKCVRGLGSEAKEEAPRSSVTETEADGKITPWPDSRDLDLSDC

[3] = molecular target: Cholinesterase (Homo sapiens) (UniProt P06276); assay: Inhibition of human BChE at 10 uM relative to control
Sequence of Cholinesterase (Homo sapiens) (P06276 whole entry): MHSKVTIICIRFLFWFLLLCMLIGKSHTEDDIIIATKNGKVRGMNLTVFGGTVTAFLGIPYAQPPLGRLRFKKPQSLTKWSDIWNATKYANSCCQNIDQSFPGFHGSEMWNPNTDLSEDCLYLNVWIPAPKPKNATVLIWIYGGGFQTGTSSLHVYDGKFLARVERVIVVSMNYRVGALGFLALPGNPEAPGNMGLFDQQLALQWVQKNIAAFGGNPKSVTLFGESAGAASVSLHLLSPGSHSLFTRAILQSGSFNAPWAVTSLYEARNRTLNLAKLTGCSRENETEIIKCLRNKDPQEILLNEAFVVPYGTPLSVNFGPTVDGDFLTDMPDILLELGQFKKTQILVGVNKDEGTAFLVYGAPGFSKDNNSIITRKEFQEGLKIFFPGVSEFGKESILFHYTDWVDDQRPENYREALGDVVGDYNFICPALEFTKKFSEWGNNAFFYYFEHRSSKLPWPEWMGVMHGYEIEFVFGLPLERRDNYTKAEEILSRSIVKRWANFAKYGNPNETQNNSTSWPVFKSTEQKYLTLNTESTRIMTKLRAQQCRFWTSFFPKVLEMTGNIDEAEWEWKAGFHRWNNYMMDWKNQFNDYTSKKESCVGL

Cannabinoid receptor 2 [4] = molecular target: T2, Cannabinoid receptor 2; assay: Displacement of [3H]CP55940 from CB2 receptor (unknown origin) expressed in HEK cell membrane measured after 90 mins by competitive binding assay; assay type: cell membranes
Cannabinoid receptor 1 [5] = molecular target: T1, Cannabinoid receptor 1; assay: Binding affinity to human CB1 receptor stably expressing CHO cells assessed as inhibition constant by radioligand binding assay; assay type: cell-based
Cannabinoid receptor 1 [6] = molecular target: T1, Cannabinoid receptor 1; assay: Binding affinity to CB1 receptor (unknown origin) assessed as inhibition constant
Cannabinoid receptor 2 [7] = molecular target: T2, Cannabinoid receptor 2; assay: Binding affinity to CB2 receptor (unknown origin) assessed as inhibition constant
Cannabinoid receptor 1 [8] = molecular target: Cannabinoid receptor 1 (Rattus norvegicus, UniProt P20272); assay: Displacement of [3H]CP55940 from rat brain membrane CB1 receptor assessed as inhibition constant incubated for 1 hr by liquid scintillation counting method; assay type: cell membranes
Sequence of Cannabinoid receptor 1 (Rattus norvegicus, UniProt P20272) (P20272 whole entry): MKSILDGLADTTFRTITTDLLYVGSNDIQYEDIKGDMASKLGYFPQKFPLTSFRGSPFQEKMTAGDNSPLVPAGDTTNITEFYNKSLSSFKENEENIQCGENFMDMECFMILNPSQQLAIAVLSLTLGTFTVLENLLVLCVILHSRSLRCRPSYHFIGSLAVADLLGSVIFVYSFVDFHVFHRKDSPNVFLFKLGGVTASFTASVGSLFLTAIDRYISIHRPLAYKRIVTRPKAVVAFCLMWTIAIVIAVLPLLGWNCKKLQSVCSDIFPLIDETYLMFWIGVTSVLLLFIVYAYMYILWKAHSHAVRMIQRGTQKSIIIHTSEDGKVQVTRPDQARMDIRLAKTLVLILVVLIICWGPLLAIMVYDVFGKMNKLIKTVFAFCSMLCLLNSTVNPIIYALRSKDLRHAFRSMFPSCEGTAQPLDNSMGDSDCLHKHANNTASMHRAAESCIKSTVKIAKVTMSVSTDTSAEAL

Cannabinoid receptor 2 [9] = molecular target: T2, Cannabinoid receptor 2; assay: Displacement of [3H]CP55940 from human CB2 receptor expressed in HEK293 cell membrane assessed as inhibition constant incubated for 1 hr by liquid scintillation counting method; assay type: cell membranes
Cannabinoid receptor 1 [10] = molecular target: T1, Cannabinoid receptor 1; assay: Displacement of [3H]CP55940 from human CB1 receptor
Cannabinoid receptor 2 [11] = molecular target: T2, Cannabinoid receptor 2; assay: Displacement of [3H]CP55940 from human CB2 receptor

`CCOc1ccc(Nc2nc3cc(C(=O)N(CC)CC)ccc3n2CCC(C)C)cc1` showed an Activity (Cannabinoid receptor 1 [1]) of 13% and a pKi (Cannabinoid receptor 2 [2]) of 8.72.

`CCN(CC)C(=O)c1ccc2c(c1)nc(Nc1ccc(Oc3ccccc3)cc1)n2CCC(C)C` was tested, and the inhibition [3] was 2%.

`CN1CCCCC1Cn1cc(C(=O)c2cc([N+](=O)[O-])ccc2I)c2ccccc21` (stereo not drawn) showed a pKi (Cannabinoid receptor 2 [4]) of 8.15.

Work on `CCOc1ccc(Cc2nc3cc(C(=O)N(CC)CC)ccc3n2CCC(C)C)cc1` yielded a pKi (Cannabinoid receptor 1 [5]) of less than 5.30.

With `CCCn1c(C)c(C(=O)c2ccc3ccccc3c2)c2ccccc21` the pKi (Cannabinoid receptor 1 [6]) was 6.42 and the pKi (Cannabinoid receptor 2 [7]) was 7.86.

Compound `CCC(C)(C)c1ccc2c(c1)OC(C)(C)C1CC=C(C)CC21` (stereo not drawn) has a pKi (Cannabinoid receptor 1 [8]) of 5.64 and a pKi (Cannabinoid receptor 2 [9]) of 7.85.

For `O=C(c1ccc2ccccc2c1)c1cn2c3c(cccc13)OCC2CN1CCOCC1` (stereo not drawn), the pKi (Cannabinoid receptor 1 [10]) was 7.21 and the pKi (Cannabinoid receptor 2 [11]) was 8.48.

For `CCCC(C)(C)c1ccc2c(c1)OC(C)(C)C1CC=C(C)CC21` (stereo not drawn), the pKi (Cannabinoid receptor 1 [8]) was 6.17 and the pKi (Cannabinoid receptor 2 [9]) was 8.47.
